Tests used:
[1] = Phase I Part III: 14-day repeated dose pharmacokinetics, tablets; assay type: in vivo, human (healthy volunteers); conditions: tablets 100 mg daily (Group 1)
Source text: (§1) Fourteen days repeated dosing was initiated using a tablet formulation (Part III) and was completed (Part IV) using the suspension for oral administration.
A total of 111 subjects were randomized; 104 young healthy male volunteers and eight (8) post-menopausal women.

MC1R [2] = conditions: cited from earlier work
[3] = Phase I Part I: single ascending oral dose pharmacokinetics (oral suspension); assay type: in vivo, human (healthy volunteers)
Experimental: FIG. 2: Plasma concentration following single oral dosing of test compound in healthy volunteers. […] Dose levels of test compound: 100, 200, 400, 600 or 800 mg. Consecutive plasma samples were collected and concentration in plasma determined by LCMS-MS. N=6 per dose level. Mean per group.

[4] = Phase I Part IV: 14-day repeated dose pharmacokinetics, oral suspension; assay type: in vivo, human (healthy volunteers)
Experimental: FIG. 3: Plasma concentration following repeated oral dosing of test compound in healthy volunteers. […] Dose levels of test compound 1: 50, 100, 200 mg. Consecutive plasma samples were collected following the last day of dosing (day 14) and concentration in plasma determined by LCMS-MS. N=9 per dose level. Mean+/−SD per group.

MC1R [5] = molecular target: MC1R (Homo sapiens, UniProt Q01726); conditions: WO 2007/141343; cited from earlier work
Sequence of MC1R (Homo sapiens, UniProt Q01726) (Q01726 whole entry, species assumed): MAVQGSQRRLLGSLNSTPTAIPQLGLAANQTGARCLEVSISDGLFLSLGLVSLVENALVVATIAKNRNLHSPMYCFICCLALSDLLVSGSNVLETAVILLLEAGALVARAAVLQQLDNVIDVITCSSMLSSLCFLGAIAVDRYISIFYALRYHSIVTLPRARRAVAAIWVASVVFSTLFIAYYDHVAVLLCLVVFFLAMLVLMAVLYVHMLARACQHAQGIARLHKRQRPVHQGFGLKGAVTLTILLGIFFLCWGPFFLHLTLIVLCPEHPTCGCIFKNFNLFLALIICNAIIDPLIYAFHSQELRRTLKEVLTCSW

[6] = Phase I Part I: single ascending oral dose safety
Source text: as §1
The two first male groups were composed of 3 subjects receiving active and one subject placebo; the other groups consisted of 6 subjects receiving active IMP and two subjects receiving placebo. Forty-eight (48) healthy male volunteers aged 19 to 39 years and eight (8) healthy postmenopausal female volunteers, aged 47 to 60 years were included.

MC3R = conditions: induces ERK1/2-phosphorylation and Ca2+ mobilization; cited from earlier work
[7] = Phase I Part II: comparative bioavailability tablet vs. oral suspension; assay type: in vivo, human (healthy volunteers); conditions: 200 mg as two 100 mg tablets vs. 200 mg oral suspension, three-way cross-over
[8] = Phase I Part IV: 14-day repeated dose safety, oral suspension
Experimental: A Part IV was added to the study that was identical to Study Part III but conducted with the oral suspension in fasting conditions.
The dose levels tested were 50 mg, 100 mg or 200 mg with matching placebo (See FIG. 3).

[9] = test system: K/BxN serum induced arthritis in C57/BL6 mice; assay: K/BxN serum transfer arthritis, incidence of severe arthritis; assay type: in vivo; conditions: K/BxN serum i.p. days 0 and 2; 8 days study period; N=6; drug alone
Experimental: Six week-old C57/BL6 mice were purchased from Charles River and left for one week for acclimatization before starting the experiment.
Arthritis was induced with two i.p. injections of 100 μl K/BxN serum on days 0 and 2 (for details see J Immunol 2015; 194:3381-3388).
Methotrexate and Veh2 (12.5% carbonate) were administered on days 3, 5 and 7 by i.p. injection (injected volume: 200 μl).
Preparation of methotrexate formulation: A small volume of 0.1M carbonate-bicarbonate buffer pH=9.6 was used to dissolve methotrexate (Sigma Cat no: A6770). Then, PBS was used to reach the desired concentration. […] Diluted compound was divided in single-use aliquots and stored at −20° C. until use.
The development of arthritis was monitored daily from day 0 to day 8.
Mice were sacrificed on day 8 after recording the daily measurements.
Visible signs of arthritis were assessed using the scoring method as described in Am J Pathol, 2014; 184(8):2333-41 consisting on assigning a score of 0-3 per paw, reaching a maximum of 12 per mouse: • Score 0: no signs of inflammation. • Score 1: subtle inflammation, localized. • Score 2: easily identified but localized. • Score 3: evident inflammation, not localized. […]
The incidence of severe arthritis was calculated as the % of mice in each group that reached a total score of 10.

[10] = female post-menopausal subjects, single 400 mg oral suspension
[11] = 50, 100 or 200 mg once daily for 14 days

CC(=O)O.N=C(N)N/N=C/C=C/c1cccn1-c1ccccc1[N+](=O)[O-] [AP1189]
bioavailability within and between subjects [1]: high and unpredicted degree of bioavailability both within and between subjects
exposure judged on Cmax, span [1]: from below the limit of quantification (BLQ) up to levels expected to be more than three times the exposure expected to induce therapeutic effects
activity at receptor MC1R (MC1R [2]; induces ERK1/2-phosphorylation and Ca2+ mobilization): biased dual agonist
canonical cAMP generation (MC1R [2]; receptors MC1R and MC3R, hence no MC1R-induced melanogenesis): does not provoke canonical cAMP generation
Cmax and AUCs compared to male subjects [3, 10]: slightly increased
apparent clearance [3, 10]: 17.26 L/h
apparent volume of distribution compared to male subjects [3, 10]: similar
inter-individual variability for Cmax and AUCs ([3]; male subjects, single oral suspension, dose range 50-800 mg, fasting): < 36%
exposure at the maximum administrated dose (MAD) above expected exposure level for therapeutic efficacy ([3]; single oral dose, MAD): more than 10 ×
day steady state achieved ([4]; 50 mg once daily oral suspension): 7 days
peak increase compared to cohort 1 (50 mg) ([4]; 100 mg once daily oral suspension): approximately 2 fold
Cmax ([4]; male, human, plasma, oral, 200 mg once daily, steady conditions, read-out: C Max (mean +/− SD, N = 9)): 893 ± 198 ng/mL
binding to MC1R (MC1R [5]): shown to bind the MC1R
QTcF and other cardiac parameters ([6]; continuous 24-hours 1000 HZ Holter ECG recording, single dose): No AP1189 associated increases in QTcF
increase in aminotransferases, above the normal upper value of ALT ([6]; male subjects, single dose 400, 600 or 800 mg): up to 1.6
subjects with isolated increases in aminotransferases ([6]; male subjects, single dose (1 at 400 mg, 2 at 600 mg, 1 at 800 mg)): 4 subjects
severe AEs / serious AEs ([6]; single oral dose 15-800 mg): No severe AEs nor serious AEs
treatment-related changes in vital signs ([6]; single oral dose 15-800 mg): No treatment-related changes in vital signs
maximum tolerated dose (MTD) ([6]; single oral dose up to 800 mg): not reached
activity at receptor MC3R (MC3R): biased dual agonist
exposure of tablet compared to oral suspension [7]: lower exposure with higher variability
QTcF in repeated standard 12 lead safety ECG [8, 11]: No individual QTcF clinically significant values
severe AEs / serious AEs [8, 11]: No severe AEs nor serious AEs
subjects treated with active with isolated increases in aminotransferases ([8]; Cohort 3, 200 mg once daily for 14 days): 3 subjects
TEAEs considered possibly related to the study treatment ([8]; once daily for 14 days, 2 at 50 mg, 2 at 200 mg, gastrointestinal disorders): 4 events
MTD ([8]; up to 200 mg once daily for 14 days): not reached
incidence of severe arthritis (% of mice in each group that reached a total score of 10) [9]: 50%

CN(Cc1cnc2nc(N)nc(N)c2n1)c1ccc(C(=O)N[C@@H](CCC(=O)O)C(=O)O)cc1 [methotrexate, reference compound]
incidence of severe arthritis (% of mice in each group that reached a total score of 10) [9]: 50%
